Square brackets hold non-standard residues; d marks the D form. Peptide text beside a SMILES is read from it. pS = N[C@@H](COP(=O)(O)O)C(=O)O
How the values were obtained:
[1] = biological target: T1, FIP200 claw domain K1569A (Homo sapiens, UniProt Q8TDY2, K1569A); test: ITC with FIP200 claw domain mutant K1569A; conditions: 20 °C, buffer B pH 7.0, N.D. = no detectable binding
T1 construct: human FIP200 claw domain1490–1594 was cloned; SUMO (N, cleaved yes); made in house; host or cells: Escherichia coli Rosetta (DE3)
Protocol: (§1) DNA fragment of human FIP200 claw domain1490–1594 was cloned into a modified pET28a (Novagen) plasmid, which contained an N-terminal SUMO-tag and a ULP1 protease cleavage site. All mutants were generated using a MutanBEST Kit (TaKaRa) and confirmed by DNA sequencing. The proteins were expressed in Escherichia coli Rosetta (DE3) cells (Novagen) cultured in LB medium at 37 °C to A600 = 1.0 and then shifted to 16 °C for 24 h after induction with 0.2 mM IPTG. Bacterial pellets were resuspended in buffer A (50 mM NaH2PO4 and 1 M NaCl, pH 7.0) and lysed by sonication. The crude lysate was then centrifuged at 14,000 rpm for 30 min at 4 °C. The supernatant was applied to a Ni-NTA column (QIAGEN), followed by size-exclusion chromatography using a Superdex 200 (GE Healthcare) column. After cleavage with ULP1 protease overnight at 16 °C to remove the SUMO-tag, an additional purification step was performed with a HiTrap SP FF column. The purified protein was concentrated to ∼20 mg/ml in buffer B (50 mM NaH2PO4, 150 mM NaCl, pH 7.0) and stored at −80 °C.
(§2) ITC assays were performed on a Microcal PEAQ-ITC instrument (Malvern) at 20 °C. The concentrations of proteins were determined spectrophotometrically. […] Thermodynamic data were analyzed with a single binding site model using MicroCal PEAQ-ITC Analysis Software provided by the manufacturer (Malvern).

[2] = biological target: T2, FIP200 claw domain K1568E (Homo sapiens, UniProt Q8TDY2, K1568E); test: ITC with FIP200 claw domain mutant K1568E; conditions: 20 °C, buffer B pH 7.0, N.D. = no detectable binding
T2 construct: human FIP200 claw domain1490–1594 was cloned; SUMO (N, cleaved yes); made in house; host or cells: Escherichia coli Rosetta (DE3)
Protocol: as §1, §2

T2 sequence (Q8TDY2 1490-1594 K1568E): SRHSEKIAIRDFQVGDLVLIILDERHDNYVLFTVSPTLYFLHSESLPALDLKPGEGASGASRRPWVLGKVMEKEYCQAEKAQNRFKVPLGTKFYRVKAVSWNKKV
T1 sequence (Q8TDY2 1490-1594 K1569A): as the sequence (Q8TDY2 1490-1594 K1568E) above, with E79K, K80A counted along it

KD [1]: Weak binding | KD [2]: Weak binding
SMILES: CC(C)[C@H](NC(=O)[C@H](CCC(=O)O)NC(=O)[C@H](Cc1ccccc1)NC(=O)[C@H](CCC(=O)O)NC(=O)[C@H](COP(=O)(O)O)NC(=O)[C@H](CO)NC(=O)[C@@H](NC(=O)CNC(=O)[C@H](CO)NC(=O)[C@@H](N)CO)[C@@H](C)O)C(=O)N[C@H](C(=O)N[C@H](C(=O)N1CCC[C@H]1C(=O)N[C@@H](CCC(=O)O)C(=O)N[C@@H](CCC(=O)O)C(=O)N[C@@H](CCC(N)=O)C(=O)O)[C@@H](C)O)C(C)C [TNIP1_pS123^ long] (H-SSGTS[pS]EFEVVTPEEQ-OH)

Reference: PMC11367644, “Structural basis for TNIP1 binding to FIP200 during mitophagy” (The Journal of Biological Chemistry, 2024)
